Measured values taken from patent US11021445B2, “Carboxylic acid derivative as AT2R receptor antagonist” (SHANDONG DANHONG PHARMACEUTICAL CO., LTD., priority 2017, dated 2021).

Target: T1, hAT2 (Homo sapiens, UniProt P50052)
T1 construct: expressed in transfected cells; host or cells: HEK-293
T1 sequence (P50052 1-363): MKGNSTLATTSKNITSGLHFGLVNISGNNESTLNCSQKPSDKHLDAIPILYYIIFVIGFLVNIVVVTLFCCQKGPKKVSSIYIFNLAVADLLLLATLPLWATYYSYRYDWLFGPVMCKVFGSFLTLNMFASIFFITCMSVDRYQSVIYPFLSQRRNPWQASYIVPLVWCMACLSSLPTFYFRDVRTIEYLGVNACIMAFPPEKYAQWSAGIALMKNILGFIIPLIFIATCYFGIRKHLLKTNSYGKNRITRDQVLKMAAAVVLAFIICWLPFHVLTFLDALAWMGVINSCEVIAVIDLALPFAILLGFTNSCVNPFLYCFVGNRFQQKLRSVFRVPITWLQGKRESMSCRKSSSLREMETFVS
Experiment: hAT2 receptor binding assay (SPA, [125I]-Sar1-Ile8-Angiotensin II)
Settings: membrane of HEK-293 cells overexpressing hAT2; 0.1 nM 125I ligand
Outline: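 Membranes from HEK-293 cells overexpressing hAT2 were used at 1.25 μg/well with 250 μg/well SPA beads. Compounds were tested as 8-point 3-fold dilutions, with stocks diluted 250-fold into the reaction. [125I]-Sar1-Ile8-Angiotensin II was present at 0.1 nM final, incubated overnight at room temperature with shaking, then read by scintillation proximity.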

| IC50 [nM] | Structure (SMILES) |
| --- | --- |
| 4.1 | COc1ccc2c(c1OCc1ccccc1)C[C@@H](C(=O)O)N(C(=O)[C@@H](OC1CCCC1)c1ccccc1)C2 [Compound 37] |
| 3.2 | COc1ccc2c(c1OCc1ccccc1)C[C@@H](C(=O)O)N(C(=O)[C@@H](OC1CC(F)(F)C1)c1ccccc1)C2 [Compound 51] |
| 5.8 | COc1ccc2c(c1OCc1ccccc1)C[C@@H](C(=O)O)N(C(=O)[C@@H](OC1(C)CCCC1)c1ccccc1)C2 [Compound 57] |
| 10.3 | COc1ccc2c(c1OCc1ccccc1)C[C@@H](C(=O)O)N(C(=O)[C@@H](O[C@H]1CC[C@@H](O)CC1)c1ccccc1)C2 [Compound 63] |
| 13.2 | O=C(O)[C@@H]1Cc2c(ccc(Cl)c2OCc2ccccc2)CN1C(=O)[C@@H](OC1CCCC1)c1ccccc1 [Compound 107] |
